# Test results as given in patent publication EP0584797A2, “Novel cephalosporin compounds and processes for the preparation thereof” (LUCKY LTD., priority 1992, dated 1994).
# Key:
# Experiment in all cases: minimal inhibitory concentration, two-fold agar dilution
# Assay type in all cases: cell-based
# [1] = tested on: Enterobacter cloacae ATCC 27508; details: ATCC27508, Muller-Hinton agar, 37°C, 20 hours, read-out: MIC values against the standard strains
# Procedure, shortened: (§1)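 Compounds were serially diluted two-fold into Mueller-Hinton agar, and each plate was spot-inoculated with the test strain at 10⁷ CFU per ml. Plates were incubated at 37°C for 20 hours before MIC values were read.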
# [2] = tested on: Morganella morganii ATCC 8076h; details: ATCC8076H, Muller-Hinton agar, 37°C, 20 hours, read-out: MIC values against the standard strains
# Procedure, shortened: as §1
# [3] = tested on: Bacillus cereus ATCC 11778; details: ATCC11778, Muller-Hinton agar, 37°C, 20 hours, read-out: MIC values against the standard strains
# Procedure, shortened: as §1
# [4] = tested on: Pseudomonas aeruginosa ATCC 25619; details: ATCC25619, Muller-Hinton agar, 37°C, 20 hours, read-out: MIC values against the standard strains
# Procedure, shortened: as §1
# [5] = tested on: Providencia rettgeri ATCC 9250; details: ATCC9250, Muller-Hinton agar, 37°C, 20 hours, read-out: MIC values against the standard strains
# Procedure, shortened: as §1
# [6] = tested on: Pseudomonas aeruginosa ATCC 10145; details: ATCC10145, Muller-Hinton agar, 37°C, 20 hours, read-out: MIC values against the standard strains
# Procedure, shortened: as §1
# [7] = tested on: Shigella flexneri ATCC 11836; details: ATCC11836, Muller-Hinton agar, 37°C, 20 hours, read-out: MIC values against the standard strains
# Procedure, shortened: as §1
# [8] = tested on: Staphylococcus aureus ATCC 10537; details: ATCC10537, Muller-Hinton agar, 37°C, 20 hours, read-out: MIC values against the standard strains
# Procedure, shortened: as §1
# [9] = tested on: Proteus mirabilis ATCC 25933; details: ATCC25933, Muller-Hinton agar, 37°C, 20 hours, read-out: MIC values against the standard strains
# Procedure, shortened: as §1
# [10] = tested on: Streptococcus faecalis ATCC 29212; details: Enterococcus faecalis, ATCC29212; Muller-Hinton agar; 37°C; 20 hours; read-out: MIC values against the standard strains
# Procedure, shortened: as §1
# [11] = tested on: Salmonella typhimurium ATCC 14028; details: Salmonella enterica; Muller-Hinton agar; 37°C; 20 hours; read-out: MIC values against the standard strains
# Procedure, shortened: as §1
# [12] = tested on: Staphylococcus epidermidis ATCC 12228; details: ATCC12228, Muller-Hinton agar, 37°C, 20 hours, read-out: MIC values against the standard strains
# Procedure, shortened: as §1
# [13] = tested on: Staphylococcus aureus ATCC 6538p; details: ATCC6538P, Muller-Hinton agar, 37°C, 20 hours, read-out: MIC values against the standard strains
# Procedure, shortened: as §1
# [14] = tested on: Shigella sonnei ATCC 11060; details: ATCC11060, Muller-Hinton agar, 37°C, 20 hours, read-out: MIC values against the standard strains
# Procedure, shortened: as §1
# [15] = tested on: Pseudomonas aeruginosa ATCC 27853; details: ATCC27853, Muller-Hinton agar, 37°C, 20 hours, read-out: MIC values against the standard strains
# Procedure, shortened: as §1
# [16] = tested on: Proteus vulgaris ATCC 6059; details: ATCC6059, Muller-Hinton agar, 37°C, 20 hours, read-out: MIC values against the standard strains
# Procedure, shortened: as §1
# [17] = tested on: Enterobacter aerogenes ATCC 29751; details: Klebsiella aerogenes, ATCC29751; Muller-Hinton agar; 37°C; 20 hours; read-out: MIC values against the standard strains
# Procedure, shortened: as §1
# [18] = tested on: Micrococcus luteus ATCC 9341; details: ATCC9341, Muller-Hinton agar, 37°C, 20 hours, read-out: MIC values against the standard strains
# Procedure, shortened: as §1
# [19] = tested on: Escherichia coli ATCC 25922; details: ATCC25922, Muller-Hinton agar, 37°C, 20 hours, read-out: MIC values against the standard strains
# Procedure, shortened: as §1
# [20] = tested on: Citrobacter freundii ATCC 8090; details: ATCC8090, Muller-Hinton agar, 37°C, 20 hours, read-out: MIC values against the standard strains
# Procedure, shortened: as §1
# [21] = tested on: Serratia marcescens ATCC 27117; details: ATCC27117, Muller-Hinton agar, 37°C, 20 hours, read-out: MIC values against the standard strains
# Procedure, shortened: as §1
# [22] = tested on: Acinetobacter calcoaceticus ATCC 15437; details: ATCC15437, Muller-Hinton agar, 37°C, 20 hours, read-out: MIC values against the standard strains
# Procedure, shortened: as §1
# [23] = tested on: Escherichia coli ATCC 10536; details: ATCC10536, Muller-Hinton agar, 37°C, 20 hours, read-out: MIC values against the standard strains
# Procedure, shortened: as §1
# [24] = tested on: Bacillus megaterium ATCC 9885; details: Priestia megaterium, ATCC9885; Muller-Hinton agar; 37°C; 20 hours; read-out: MIC values against the standard strains
# Procedure, shortened: as §1
# [25] = tested on: Klebsiella pneumoniae ATCC 10031; details: ATCC10031, Muller-Hinton agar, 37°C, 20 hours, read-out: MIC values against the standard strains
# Procedure, shortened: as §1
# [26] = tested on: Acinetobacter calcoaceticus ATCC 15473; details: ATCC15473, Muller-Hinton agar, 37°C, 20 hours, read-out: MIC values against the standard strains
# Procedure, shortened: as §1
SMILES,MIC [1] [µg/mL],MIC [2] [µg/mL],MIC [3] [µg/mL],MIC [4] [µg/mL],MIC [5] [µg/mL],MIC [6] [µg/mL],MIC [7] [µg/mL],MIC [8] [µg/mL],MIC [9] [µg/mL],MIC [10] [µg/mL],MIC [11] [µg/mL],MIC [12] [µg/mL],MIC [13] [µg/mL],MIC [14] [µg/mL],MIC [15] [µg/mL],MIC [16] [µg/mL],MIC [17] [µg/mL],MIC [18] [µg/mL],MIC [19] [µg/mL],MIC [20] [µg/mL],further results
"CCO/N=C(\C(=O)N[C@@H]1C(=O)N2C(C(=O)[O-])=C(CSc3nc(N)cc[n+]3C)CS[C@H]12)c1csc(N)n1 [Example 4, 7-[(Z)-2-(aminothiazol-4-yl)-2-(ethoxyimino)acetamido]-3-(4-amino-1-methylpyrimidinium-2-yl)thiomethyl-3-cephem-4-carboxylate]",≤ 0.008,≤ 0.008,32,1,≤ 0.008,16,0.031,0.25,0.5,64,0.25,0.13,0.5,0.25,8,0.5,0.25,0.063,0.063,0.063,MIC [21]: 0.25 µg/mL; MIC [22]: 8 µg/mL; MIC [23]: 0.063 µg/mL; MIC [24]: 0.13 µg/mL; MIC [25]: ≤ 0.008 µg/mL
CCO/N=C(\C(=O)N[C@@H]1C(=O)N2C(C(=O)[O-])=C(CSc3nc(N)c(N)c(N)[n+]3C)CS[C@H]12)c1nsc(N)n1 [Example 5],0.13,≤ 0.008,16,0.5,≤ 0.008,4,0.031,0.25,0.5,32,0.25,0.25,0.5,0.25,2,0.5,0.016,0.031,0.063,0.13,MIC [21]: 0.25 µg/mL; MIC [22]: 2 µg/mL; MIC [23]: 0.063 µg/mL; MIC [24]: 0.063 µg/mL; MIC [25]: 0.016 µg/mL
"CCO/N=C(\C(=O)N[C@@H]1C(=O)N2C(C(=O)[O-])=C(CSc3nc(N)cc[n+]3C)CS[C@H]12)c1nsc(N)n1 [Example 6, 7-[(Z)-2-(5-amino-1,2,4-thiadiazol-3-yl)-2-(ethoxyimino)acetamido]-3-(4-amino-1-methylpyrimidinium-2-yl)thiomethyl-3-cephem-4-carboxylate]",0.063,≤ 0.008,16,0.5,≤ 0.008,4,0.063,0.13,0.5,32,0.5,0.13,0.13,0.25,2,0.5,0.016,0.063,0.063,0.063,MIC [21]: 0.5 µg/mL; MIC [22]: 1 µg/mL; MIC [23]: 0.063 µg/mL; MIC [24]: 0.063 µg/mL; MIC [25]: ≤ 0.008 µg/mL
"Nc1cc[n+](N)c(SCC2=C(C(=O)[O-])N3C(=O)[C@@H](NC(=O)/C(=N\OCC(=O)O)c4csc(N)n4)[C@H]3SC2)n1 [Example 75, 7-[(Z)-2-(2-aminothiazol-4-yl)-2-(carboxymethoxyimino)acetamido]-3-(1,4-diaminopyrimidinium-2-yl)thiomethyl-3-cephem-4-carboxylate]",≤ 0.008,≤ 0.008,128,4,≤ 0.008,8,0.016,4,0.063,> 128,0.063,4,8,0.016,4,0.031,0.5,2,0.016,0.031,MIC [26]: 4 µg/mL; MIC [21]: 0.031 µg/mL; MIC [23]: 0.016 µg/mL; MIC [24]: 0.5 µg/mL; MIC [25]: 0.016 µg/mL
